The values that follow come from US9133168B2, “Pyrimidine derivatives, preparation thereof, and pharmaceutical use thereof as akt(pkb) phosphorylation inhibitors” (SANOFI, priority 2010, dated 2015).

Structures are written as SMILES. pIC50: −log10 of the molar value.

As a reminder, the pIC50 is −log10 of the IC50, conventionally taken in molar units. Read a low pIC50 as a large IC50.

For one assay, the system named is AKT protein phosphorylated on serine 473 (P-AKT-S473) in PC3 human prostate carcinoma cells. The experiment in a line: pAKT expression in PC3 human prostate carcinoma cells, MSD Multi-spot Biomarker detection (Test A). It is filed as cell-based. The conditions noted are these: Homo sapiens, PC-3. The procedure: The inhibitory activity of the molecules on AKT phosphorylation is measured using the MSD Multi-spot Biomarker detection technique from Meso Scale Discovery also described below. […] The primary antibody specific for […]) is coated on to an electrode in each well of the 96-well plates of the MSD kit: after the addition of a protein lysate to each well, the signal is visualized by adding a secondary detection antibody labeled with an electrochemiluminescent compound. The procedure followed is the one described in the kit. […] On day 2, the cells are incubated in the presence or absence of the test products for 1 to 2 h at 37° C. in the presence of 5% CO2. The molecules, diluted in dimethyl sulfoxide (DMSO Sigma #D2650), are added from a 20-times concentrated stock solution, the final percentage of DMSO being 0.1%. The molecules are tested either at a single concentration of less than or equal to 10 μM, or at increasing concentrations in a range that can extend from less than 1 nM to 10 μM. After this incubation, the cells are lysed for the preparation of the proteins. […] At this stage, the plates containing the lysates can be frozen at -20° C. or at -80° C. The wells of the 96 well plates of the MSD kit are saturated for 1 h at ambient temperature with the blocking solution of the MSD kit. Four washes are carried out with 150 μl of Tris Wash Buffer of the MSD kit. The lysates previously prepared are transferred into the 96-well multi-spot plates of the MSD kit and incubated for 1 h at ambient temperature, with shaking. Four washes are carried out with 150 μl of Tris Wash Buffer of the MSD kit. 25 μl of the MSD sulfo-tag detection antibody solution are added to the wells and incubated for 1 h at ambient temperature, with shaking. Four washes are carried out with 150 μl of Tris Wash Buffer of the MSD kit. 150 μl of Read Buffer of the MSD kit are added to the wells and the plates are read immediately on the S12400 instrument from Meso Scale Discovery. The instrument measures a signal for each well. Wells without cells and containing the lysis buffer serve to determine the background noise that will be subtracted from all the measurements (min). The wells containing cells in the absence of product and in the presence of 0.1% DMSO are considered to be the 100% signal (max). The percentage inhibition is calculated for each concentration of product tested, according to the following formula: (1-((test-min)/(max-min)))×100. […] Two independent experiments make it possible to calculate the mean of the IC50 values.
`Cn1c(CC(=O)Nc2ccc(F)c(Cl)c2)nc(N2CCOC(CF)C2)cc1=O` (single isomer, unassigned; (+)) [Example 5b, (+)-N-(3-chloro-4-fluorophenyl)-2-[4-(2-fluoromethylmorpholin-4-yl)-1-methyl-6-oxo-1,6-dihydropyrimidin-2-yl]acetamide] gave a pIC50 of 6.90.

Staying with this assay, now noted: Homo sapiens, PC-3, PC3 cells, 1 to 2 h incubation, P-AKT-S473, absolute IC50, mean of two independent experiments.
Consider `CCC1CN(c2cc(=O)[nH]c(CC(=O)Nc3ccc(F)cc3)n2)CCO1` (racemic) [Example 14b, (±)-2-[4-(2-ethylmorpholin-4-yl)-6-oxo-1,6-dihydropyrimidin-2-yl]-N-(4-fluorophenyl)acetamide], for which the pIC50 was 6.55.
Same read-out and setting: the result for `O=C(Cc1nc(N2CCOC(CO)C2)cc(=O)[nH]1)N1CCc2c(F)cccc21` (racemic) [Example 27b, (±)-2-[2-(4-fluoro-2,3-dihydroindol-1-yl)-2-oxoethyl]-6-(2-hydroxymethylmorpholin-4-yl)-3H-pyrimidin-4-one] reads 5.88; that for `CCC1CN(c2cc(=O)[nH]c(CC(=O)Nc3ccc(F)cc3)n2)CCO1` (single isomer, unassigned; (+)) [Example 15b, (+)-2-[4-(2-Ethylmorpholin-4-yl)-6-oxo-1,6-dihydropyrimidin-2-yl]-N-(4-fluorophenyl)acetamide], 6.98.
The compound `CC1Cc2c(ccc(F)c2F)N1C(=O)Cc1nc(N2CCOCC2)cc(=O)n1C` (single isomer, unassigned; (+)) [Example 19c, (+)-2-{2-[4,5-difluoro-2-methyl-2,3-dihydro-1H-indol-1-yl]-2-oxoethyl}-3-methyl-6-(morpholin-4-yl)pyrimidin-4(3H)-one] had a pIC50 of 7.72.
Still for that read-out and setting: the result for `CC1CN(c2cc(=O)[nH]c(CC(=O)N3c4ccccc4C[C@@H]3C)n2)CCO1` (single isomer, unassigned; (+)) [Example 29b] reads 7.62.

Still in this assay, the particulars now being: PC3 cells, 1 to 2 h incubation, P-AKT-S473, absolute IC50, mean of two independent experiments.
As for `CC1CN(c2cc(=O)[nH]c(CC(=O)Nc3ccc(F)cc3)n2)CCO1` (single isomer, unassigned; (+)) [Example 2b, (+)-N-(4-fluorophenyl)-2-[4-(2-methylmorpholin-4-yl)-6-oxo-1,6-dihydropyrimidin-2-yl]acetamide], the pIC50 was 8.22.
The same measure, in the same setting: the result for `CC1Cc2c(Cl)cccc2N1C(=O)Cc1nc(N2CCOCC2)cc(=O)[nH]1` (single isomer, unassigned; (+)) [Example 2c, (+)-2-{2-[4-chloro-2-methyl-2,3-dihydro-1H-indol-1-yl]-2-oxoethyl}-6-(morpholin-4-yl)pyrimidin-4(3H)-one] reads 8.30; that for `O=C(Cc1nc(N2CCOC(CF)C2)cc(=O)[nH]1)Nc1ccc(F)cc1` (single isomer, unassigned; (+)) [Example 4b, (+)-N-(4-fluorophenyl)-2-[4-(2-fluoromethylmorpholin-4-yl)-6-oxo-1,6-dihydropyrimidin-2-yl]acetamide], 6.93; that for `O=C(Cc1nc(N2CCOC(CF)C2)cc(=O)[nH]1)N1CCc2c(F)cccc21` (single isomer, unassigned; (+)) [Example 7b, (+)-2-[2-(4-fluoro-2,3-dihydroindol-1-yl)-2-oxoethyl]-6-(2-fluoromethylmorpholin-4-yl)-3H-pyrimidin-4-one], 7.68.
On the same count and under the same terms, the result for `CC1Cc2c(O)cccc2N1C(=O)Cc1nc(N2CCOCC2)cc(=O)[nH]1` (single isomer, unassigned; (+)) [Example 9c, (+)-2-{2-[4-hydroxy-2-methyl-2,3-dihydro-1H-indol-1-yl]-2-oxoethyl}-6-(morpholin-4-yl)pyrimidin-4(3H)-one] reads 6.94; that for `CC1CN(c2cc(=O)[nH]c(CC(=O)N3CCc4c(F)cccc43)n2)CCO1` (single isomer, unassigned; (+)) [Example 10b, (+)-2-[2-(4-fluoro-2,3-dihydroindol-1-yl)-2-oxoethyl]-6-(2-methylmorpholin-4-yl)-3H-pyrimidin-4-one], 8.10.
`CC1Cc2cc(F)ccc2N1C(=O)Cc1nc(N2CCOCC2)cc(=O)[nH]1` (single isomer, unassigned; (+)) [Example 13c, (+)-2-{2-[5-fluoro-2-methyl-2,3-dihydro-1H-indol-1-yl]-2-oxoethyl}-6-(morpholin-4-yl)pyrimidin-4(3H)-one] had a pIC50 of 8.30.
The same measure, in the same setting: the figure for `CC1Cc2cc(F)ccc2N1C(=O)Cc1nc(N2CCOCC2)cc(=O)n1C` (single isomer, unassigned; (+)) [Example 15c, (+)-2-{2-[5-fluoro-2-methyl-2,3-dihydro-1H-indol-1-yl]-2-oxoethyl}-3-methyl-6-(morpholin-4-yl)pyrimidin-4(3H)-one] is 7.55.
With `CC1Cc2c(Br)cccc2N1C(=O)Cc1nc(N2CCOCC2)c(F)c(=O)[nH]1` (single isomer, unassigned; (+)) [Example 16a, (+)-2-{2-[4-bromo-2-methyl-2,3-dihydro-1H-indol-1-yl]-2-oxoethyl}-5-fluoro-6-(morpholin-4-yl)pyrimidin-4(3H)-one], the negative logarithm of the IC50 (pIC50) is 6.32.
Still for that read-out and setting: the figure for `CC1Cc2c(ccc(F)c2F)N1C(=O)Cc1nc(N2CCOCC2)cc(=O)[nH]1` (single isomer, unassigned; (+)) [Example 17c, (+)-2-{2-[4,5-difluoro-2-methyl-2,3-dihydro-1H-indol-1-yl]-2-oxoethyl}-6-(morpholin-4-yl)pyrimidin-4(3H)-one] is 8.40; for `CC1Cc2ccccc2N1C(=O)Cc1nc(N2CCOCC2)cc(=O)[nH]1` (single isomer, unassigned; (+)) [Example 21b, (+)-2-[2-(2-methyl-2,3-dihydroindol-1-yl)-2-oxoethyl]-6-morpholin(D8)-4-yl-3H-pyrimidin-4-one] it is 7.57; for `O=C(Cc1nc(N2CCOCC2)cc(=O)[nH]1)N1c2ccccc2CC1c1ccccc1` (single isomer, unassigned; (+)) [Example 24d, (+)-6-(morpholin-4-yl)-2-{2-oxo-2-[2-phenyl-2,3-dihydro-1H-indol-1-yl]ethyl}pyrimidin-4(3H)-one] it is 6.69.
In turn, `CC1Cc2c(Br)cccc2N1C(=O)Cc1nc(N2CCOCC2)cc(=O)[nH]1` (single isomer, unassigned; (+)) [Example 25c, (+)-2-{2-[4-bromo-2-methyl-2,3-dihydro-1H-indol-1-yl]-2-oxoethyl}-6-(morpholin-4-yl)pyrimidin-4(3H)-one] showed a pIC50 of 7.41.
The same measure, in the same setting: the figure for `O=C(Cc1nc(N2CCOC(CO)C2)cc(=O)[nH]1)N1CCc2c(Cl)cccc21` (single isomer, unassigned; (+)) [Example 26b, (+)-2-[2-(4-Chloro-2,3-dihydroindol-1-yl)-2-oxoethyl]-6-(2-hydroxymethylmorpholin-4-yl)-3H-pyrimidin-4-one] is 6.62; for `CC1Cc2c(F)cccc2N1C(=O)Cc1nc(N2CCOCC2)cc(=O)[nH]1` (single isomer, unassigned; (+)) [Example 28c, (+)-2-{2-[4-fluoro-2-methyl-2,3-dihydro-1H-indol-1-yl]-2-oxoethyl}-6-(morpholin-4-yl)pyrimidin-4(3H)-one] it is 7.01.

Still in this assay, the particulars now being: PC3 cells, 1 to 2 h incubation, P-AKT-S473, absolute IC50, mean of two independent experiments; listed as 27.
On to `O=C(Cc1nc(N2CCOCC2)cc(=O)[nH]1)N1c2ccccc2CC1c1ccc(F)cc1` (single isomer, unassigned; (+)) [Example 27d, (+)-2-{2-[2-(4-fluorophenyl)-2,3-dihydro-1H-indol-1-yl]-2-oxoethyl}-6-(morpholin-4-yl)pyrimidin-4(3H)-one], for which the pIC50 was 6.36.
